Test results from patent publication US20260184663A1, “INDENE COMPOUNDS, PHARMACEUTICAL COMPOSITIONS THEREOF, AND THEIR THERAPEUTIC APPLICATIONS” (NucMito Pharmaceuticals co. Ltd., priority 2022, published 2026).

How the values were obtained:
Assay type in all cases: cell-based
[1] = system: MDA-MB-231 (breast cancer); test: Antiproliferative activity (CCK-8 cell viability), MDA-MB-231; conditions: Homo sapiens, 72 h; for inhibition at 3.3 µM: Compound concentration: 3.3 μM; for inhibition at 3.3 µM / inhibition at 10 µM: read-out: Antiproliferative activity in cancerous cells, MDA-MB-231 (inhibition of cell growth); for inhibition at 10 µM: Compound concentration: 10 μM
Procedure, shortened: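 MDA-MB-231 breast cancer cells, grown in DMEM with 10% FBS, were plated in 96-well plates at 2,000-5,000 cells/well. Once attached, they were exposed to compound and incubated at 37° C. for 72 h. Viability was then measured with CCK-8 (10 μL per well, 4 h at 37° C.) by absorbance at 450 nm, relative to DMSO vehicle wells.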

HepG2 (liver cancer) = test: Antiproliferative activity (CCK-8 cell viability), HepG2; conditions: Homo sapiens, 72 h, read-out: Antiproliferative activity in cancerous cells, HepG2 (inhibition of cell growth); for inhibition at 3.3 µM: Compound concentration: 3.3 μM; for inhibition at 10 µM: Compound concentration: 10 μM
Procedure, shortened: (§1)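 Cells grown in DMEM (HepG2, SW480), MEM (HeLa) or F-12K (A549), each with 10% FBS, then exposed to compound at 3.3, 10 or 30 μM for 72 h at 37 °C. CCK-8 absorbance at 450 nm; viability expressed as percent of DMSO-treated cells, graded as growth inhibition bands.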

SW480 (colon cancer) = test: Antiproliferative activity (CCK-8 cell viability), SW480; conditions: Homo sapiens, 72 h; for inhibition at 3.3 µM: Compound concentration: 3.3 μM; for inhibition at 3.3 µM / inhibition at 10 µM: read-out: Antiproliferative activity in cancerous cells, SW480 (inhibition of cell growth); for inhibition at 10 µM: Compound concentration: 10 μM; for inhibition at 30 µM: Compound concentration: 30 μM, read-out: Antiproliferative activity in cancerous cells, SW480
Procedure, shortened: as §1

[2] = system: B16F10 (malignant melanoma); test: Antiproliferative activity (CCK-8 cell viability), B16F10; conditions: Mus musculus, 72 h, read-out: Antiproliferative activity in cancerous cells, B16F10 (inhibition of cell growth); for inhibition at 3.3 µM: B16-F10, Compound concentration: 3.3 μM; for inhibition at 10 µM: B16-F10, Compound concentration: 10 μM
Procedure, shortened: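 B16F10 melanoma cells grown in DMEM with 10% FBS were plated in 96-well plates at 2,000-5,000 cells/well. After attachment they were exposed to compound in medium for 72 h at 37° C. CCK-8 solution (10 μL) was then added, and after 4 h at 37° C absorbance was read at 450 nm.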

[3] = system: A431 (epidermoid carcinoma); test: Antiproliferative activity (CCK-8 cell viability), A431; conditions: Homo sapiens, 72 h, read-out: Antiproliferative activity in cancerous cells, A431 (inhibition of cell growth); for inhibition at 3.3 µM: A-431, Compound concentration: 3.3 μM; for inhibition at 10 µM: A-431, Compound concentration: 10 μM
Procedure, shortened: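 A431 epidermoid carcinoma cells grown in DMEM with 10% FBS were plated at 2,000-5,000 cells/well in 96-well plates. After attachment they were exposed to compound at 3.3 μM, 10 μM, or 30 μM for 72 h at 37° C. Viability was then assessed by CCK-8 against DMSO vehicle-treated wells.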

[4] = system: A549 (lung adenocarcinoma); test: Antiproliferative activity (CCK-8 cell viability), A549; conditions: Homo sapiens, 72 h; for inhibition at 3.3 µM: Compound concentration: 3.3 μM; for inhibition at 3.3 µM / inhibition at 10 µM: read-out: Antiproliferative activity in cancerous cells, A549 (inhibition of cell growth); for inhibition at 10 µM: Compound concentration: 10 μM
Procedure, shortened: as §1

HeLa (cervical cancer) = test: Antiproliferative activity (CCK-8 cell viability), HeLa; conditions: Homo sapiens, 72 h, read-out: Antiproliferative activity in cancerous cells, HELA (inhibition of cell growth); for inhibition at 3.3 µM: Compound concentration: 3.3 μM; for inhibition at 10 µM: Compound concentration: 10 μM
Procedure, shortened: as §1

Row | SMILES | inhibition at 3.3 µM [1] [%] | inhibition at 10 µM [1] [%] | inhibition at 3.3 µM (HepG2 (liver cancer)) [%] | inhibition at 10 µM (HepG2 (liver cancer)) [%] | inhibition at 3.3 µM (SW480 (colon cancer)) [%] | inhibition at 10 µM (SW480 (colon cancer)) [%] | inhibition at 3.3 µM [2] [%] | inhibition at 10 µM [2] [%] | inhibition at 3.3 µM [3] [%] | inhibition at 10 µM [3] [%] | inhibition at 3.3 µM [4] [%] | inhibition at 10 µM [4] [%] | inhibition at 3.3 µM (HeLa (cervical cancer)) [%] | inhibition at 10 µM (HeLa (cervical cancer)) [%] | inhibition at 30 µM (SW480 (colon cancer)) [%] | inhibition at 30 µM ([1]; Compound concentration: 30 μM, read-out: Antiproliferative activity in cancerous cells, MDA-MB-231) [%] | inhibition at 30 µM ([4]; Compound concentration: 30 μM, read-out: Antiproliferative activity in cancerous cells, A549) [%]
1 | CC1=C(CC(=O)O)c2cc(F)ccc2/C1=C\c1ccc(Oc2ccc(I)cc2)cc1 [C57, (Z)-2-(5-Fluoro-1-(4-(4-iodophenoxy)benzylidene)-2-methyl-1H-inden-3-yl)acetic acid] | < 30 | ≥ 50 | 30 to 50 | ≥ 50 | < 30 | ≥ 50 | ≥ 50 | ≥ 50 | 30 to 50 | ≥ 50 | 30 to 50 | ≥ 50 | < 30 | ≥ 50 | – | – | –
2 | COc1cc(Oc2ccc(Cl)cc2)ccc1/C=C1/C(C)=C(CC(=O)O)c2cc(F)ccc21 [C58, (Z)-2-(1-(4-(4-Chlorophenoxy)-2-methoxybenzylidene)-5-fluoro-2-methyl-1H-inden-3-yl)acetic acid] | < 30 | < 30 | ≥ 50 | ≥ 50 | < 30 | < 30 | ≥ 50 | ≥ 50 | ≥ 50 | ≥ 50 | ≥ 50 | ≥ 50 | ≥ 50 | ≥ 50 | 30 to 50 | – | –
3 | CC1=C(CC(=O)O)c2cc(F)ccc2/C1=C\c1ccc(Oc2ccc(Cl)cc2)cc1Cl [C59, (Z)-2-(1-(2-Chloro-4-(4-chlorophenoxy)benzylidene)-5-fluoro-2-methyl-1H-inden-3-yl)acetic acid] | < 30 | < 30 | ≥ 50 | ≥ 50 | < 30 | ≥ 50 | < 30 | ≥ 50 | ≥ 50 | ≥ 50 | 30 to 50 | ≥ 50 | ≥ 50 | ≥ 50 | – | – | –
4 | CC1=C(CC(=O)O)c2cc(F)ccc2/C1=C\c1ccc(Oc2ccc(Cl)cc2)cc1 [C60, (Z)-2-(1-(4-(4-Chlorophenoxy)benzylidene)-5-fluoro-2-methyl-1H-inden-3-yl)acetic acid] | < 30 | < 30 | ≥ 50 | ≥ 50 | < 30 | < 30 | 30 to 50 | 30 to 50 | ≥ 50 | ≥ 50 | 30 to 50 | ≥ 50 | ≥ 50 | ≥ 50 | 30 to 50 | – | –
5 | CC1=C(CC(=O)O)c2cc(F)ccc2/C1=C\c1ccc(Oc2cccc(Cl)c2)cc1 [C61, (Z)-2-(1-(4-(3-Chlorophenoxy)benzylidene)-5-fluoro-2-methyl-H-inden-3-yl)acetic acid] | < 30 | < 30 | 30 to 50 | 30 to 50 | < 30 | < 30 | < 30 | < 30 | ≥ 50 | ≥ 50 | 30 to 50 | ≥ 50 | 30 to 50 | ≥ 50 | < 30 | – | –
6 | CC1=C(CC(=O)O)c2cc(Cl)ccc2/C1=C\c1ccc(Oc2ccc(Cl)cc2)cc1 [C62, (Z)-2-(5-Chloro-1-(4-(4-chlorophenoxy)benzylidene)-2-methyl-1H-inden-3-yl)acetic acid] | < 30 | < 30 | ≥ 50 | ≥ 50 | < 30 | 30 to 50 | < 30 | ≥ 50 | 30 to 50 | ≥ 50 | 30 to 50 | ≥ 50 | 30 to 50 | ≥ 50 | – | – | –
7 | CC1=C(CC(=O)O)c2cc(Cl)ccc2/C1=C\c1ccc(Oc2ccc(F)cc2)cc1 [C63, (Z)-2-(5-Chloro-1-(4-(4-fluorophenoxy)benzylidene)-2-methyl-1H-inden-3-yl)acetic acid] | < 30 | < 30 | 30 to 50 | ≥ 50 | < 30 | < 30 | 30 to 50 | 30 to 50 | ≥ 50 | ≥ 50 | 30 to 50 | 30 to 50 | 30 to 50 | ≥ 50 | < 30 | 30 to 50 | 30 to 50
8 | CC1=C(CC(=O)O)c2cc(F)ccc2/C1=C\c1ccc(Oc2ccc(Cl)cc2)cc1C [C64, (Z)-2-(1-(4-(4-Chlorophenoxy)-2-methylbenzylidene)-5-fluoro-2-methyl-1H-inden-3-yl)acetic acid] | < 30 | 30 to 50 | ≥ 50 | ≥ 50 | < 30 | ≥ 50 | 30 to 50 | ≥ 50 | ≥ 50 | ≥ 50 | 30 to 50 | ≥ 50 | ≥ 50 | ≥ 50 | – | – | –
9 | CC1=C(CC(=O)O)c2cc(F)ccc2/C1=C\c1ccc(Oc2ccc(Cl)nc2)cc1 [C65, (Z)-2-(1-(4-((6-Chloropyridin-3-yl)oxy)benzylidene)-5-fluoro-2-methyl-1H-inden-3-yl)acetic acid] | < 30 | < 30 | 30 to 50 | ≥ 50 | < 30 | < 30 | 30 to 50 | ≥ 50 | ≥ 50 | ≥ 50 | < 30 | ≥ 50 | 30 to 50 | ≥ 50 | – | – | –
10 | CC1=C(CC(=O)O)c2cc(F)ccc2/C1=C\c1ccc(Oc2ccc(Cl)cc2Cl)cc1 [C66, (Z)-2-(1-(4-(2,4-Dichlorophenoxy)benzylidene)-5-fluoro-2-methyl-1H-inden-3-yl)acetic acid] | < 30 | ≥ 50 | ≥ 50 | ≥ 50 | < 30 | < 30 | < 30 | ≥ 50 | ≥ 50 | ≥ 50 | 30 to 50 | ≥ 50 | ≥ 50 | ≥ 50 | – | – | –
